Experiments:
MST1R = target: T1, MST1R (Homo sapiens, UniProt Q04912); assay: KINOMEscan; assay type: binding; conditions: 1 μM
T1 construct: purchased Eurofins DiscoverX Corporation

ULK2 = ULK2 (Homo sapiens, UniProt Q8IYT8); assay: KINOMEscan; assay type: binding; conditions: 1 μM
FLT3(D835H) = FLT3(D835H) (Homo sapiens, UniProt P36888, D835H); assay: KINOMEscan; assay type: binding; conditions: 1 μM
CDK4-cyclinD1 = CDK4-cyclinD1 (Homo sapiens, UniProt P11802); assay: KINOMEscan; assay type: binding; conditions: 1 μM
[1] = Metabolic stability in human liver microsomes; assay type: in vitro ADME; conditions: up to 120 min
Protocol: Pooled liver microsomes from humans (male) were purchased from Sekisui XenoTech, LLC, Kansas City, KS, USA. Metabolic stability assays were performed in the presence of an NADPH-regenerating system consisting of 5 mM glucose-6-phosphate, 5 U/mL glucose-6-phosphate dehydrogenase, and 1 mM NADP^+. Liver microsomes (20 mg/mL), NADPH-regenerating system, and 4 mM MgCl2·6 H2O in 0.1 M TRIS-HCl-buffer (pH 7.4) were preincubated for 5 min at 37 °C and 750 rpm on a shaker. The reaction was started by adding the preheated compound at 10 mM resulting in a final concentration of 0.1 mM. The reaction was quenched at selected time points (0, 10, 20, 30, 60, and 120 min) by pipetting 100 μL of internal standard (ketoprofen) at a concentration of 150 μM in acetonitrile. The samples were vortexed for 30 s and centrifuged (21910 relative centrifugal force, 4 °C, 20 min). The supernatant was used directly for LC-MS analysis. All compound incubations were conducted at least in triplicates. Additionally, a negative control containing BSA (20 mg/mL) instead of liver microsomes and a positive control using verapamil instead of compound were performed. A limit of 1% organic solvent during incubation was not exceeded. […]

MAP4K3 = target: T2, MAP4K3 (Homo sapiens, UniProt Q8IVH8); assay: KINOMEscan; assay type: binding; conditions: 1 μM
T2 construct: purchased Eurofins DiscoverX Corporation

CDKL1 = CDKL1 (Homo sapiens, UniProt Q00532); assay: KINOMEscan; assay type: binding; conditions: 1 μM
NEK5 = target: T3, NEK5 (Homo sapiens, UniProt Q6P3R8); assay: KINOMEscan; assay type: binding; conditions: 1 μM
T3 construct: purchased Eurofins DiscoverX Corporation

[2] = target: T4, ABL1(Y253F)-phosphorylated (Homo sapiens, UniProt P00519, Y253F); assay: KINOMEscan; assay type: binding; conditions: 1 μM
T4 construct: purchased Eurofins DiscoverX Corporation

PKMYT1 = PKMYT1 (Homo sapiens, UniProt Q99640); assay: KINOMEscan; assay type: binding; conditions: 1 μM
EGFR(G719C) = EGFR(G719C) (Homo sapiens, UniProt P00533, G719C); assay: KINOMEscan; assay type: binding; conditions: 1 μM
KIT(V559D) = target: T5, KIT(V559D) (Homo sapiens, UniProt P10721, V559D); assay: KINOMEscan; assay type: binding; conditions: 1 μM
T5 construct: purchased Eurofins DiscoverX Corporation

SgK110 = SgK110 (Homo sapiens, UniProt P0C264); assay: KINOMEscan; assay type: binding; conditions: 1 μM
YES = YES (Homo sapiens, UniProt P07947); assay: KINOMEscan; assay type: binding; conditions: 1 μM
MAP3K2 = target: T6, MAP3K2 (Homo sapiens, UniProt Q9Y2U5); assay: KINOMEscan; assay type: binding; conditions: 1 μM
T6 construct: purchased Eurofins DiscoverX Corporation

FLT3(ITD+D835V) = assay: KINOMEscan; assay type: binding; conditions: 1 μM
ERK8 = ERK8 (Homo sapiens, UniProt Q8TD08); assay: KINOMEscan; assay type: binding; conditions: 1 μM
CAMKK2 = target: T7, CAMKK2 (Homo sapiens, UniProt Q96RR4); assay: KINOMEscan; assay type: binding; conditions: 1 μM
T7 construct: purchased Eurofins DiscoverX Corporation (KINOMEscan)

DCAMKL1 = target: T8, DCAMKL1 (Homo sapiens, UniProt O15075); assay: KINOMEscan; assay type: binding; conditions: 1 μM
T8 construct: purchased Eurofins DiscoverX Corporation

DMPK2 = target: T9, DMPK2 (Homo sapiens, UniProt Q6DT37); assay: KINOMEscan; assay type: binding; conditions: 1 μM
T9 construct: purchased Eurofins DiscoverX Corporation

[3] = target: RSK3(Kin.Dom.1-N-terminal) (Homo sapiens, UniProt Q15349); assay: KINOMEscan; assay type: binding; conditions: 1 μM
PRKG1 = PRKG1 (Homo sapiens, UniProt Q13976); assay: KINOMEscan; assay type: binding; conditions: 1 μM
EPHB6 = EPHB6 (Homo sapiens, UniProt O15197); assay: KINOMEscan; assay type: binding; conditions: 1 μM
PIP5K1C = PIP5K1C (Homo sapiens, UniProt O60331); assay: KINOMEscan; assay type: binding; conditions: 1 μM
CSK = CSK (Homo sapiens, UniProt P41240); assay: KINOMEscan; assay type: binding; conditions: 1 μM
p38-alpha = p38-alpha (Homo sapiens, UniProt Q16539); assay: KINOMEscan; assay type: binding; conditions: 1 μM
HIPK3 = target: T10, HIPK3 (Homo sapiens, UniProt Q9H422); assay: KINOMEscan; assay type: binding; conditions: 1 μM
T10 construct: purchased Eurofins DiscoverX Corporation

FLT3(D835Y) = FLT3(D835Y) (Homo sapiens, UniProt P36888, D835Y); assay: KINOMEscan; assay type: binding; conditions: 1 μM

Sequence of CDK4-cyclinD1 (P11802 whole entry): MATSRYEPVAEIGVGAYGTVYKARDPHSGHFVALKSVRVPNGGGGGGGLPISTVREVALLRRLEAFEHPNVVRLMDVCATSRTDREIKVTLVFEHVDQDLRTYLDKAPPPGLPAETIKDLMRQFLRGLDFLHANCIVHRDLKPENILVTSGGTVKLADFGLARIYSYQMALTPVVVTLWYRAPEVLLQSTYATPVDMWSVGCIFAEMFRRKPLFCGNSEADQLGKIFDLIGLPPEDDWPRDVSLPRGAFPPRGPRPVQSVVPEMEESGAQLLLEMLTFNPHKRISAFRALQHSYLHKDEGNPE
Sequence of CDK4-cyclinD1 (P24385 whole entry partner): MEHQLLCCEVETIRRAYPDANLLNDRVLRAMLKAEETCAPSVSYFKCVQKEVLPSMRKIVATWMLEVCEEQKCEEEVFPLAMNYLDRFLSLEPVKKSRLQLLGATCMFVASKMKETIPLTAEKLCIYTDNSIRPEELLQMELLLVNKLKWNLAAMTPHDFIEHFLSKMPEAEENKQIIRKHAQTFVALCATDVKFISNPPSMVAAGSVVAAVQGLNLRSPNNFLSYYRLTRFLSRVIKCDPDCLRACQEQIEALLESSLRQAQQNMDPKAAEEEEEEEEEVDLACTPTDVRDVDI
T5 sequence (P10721 26-976 V559D): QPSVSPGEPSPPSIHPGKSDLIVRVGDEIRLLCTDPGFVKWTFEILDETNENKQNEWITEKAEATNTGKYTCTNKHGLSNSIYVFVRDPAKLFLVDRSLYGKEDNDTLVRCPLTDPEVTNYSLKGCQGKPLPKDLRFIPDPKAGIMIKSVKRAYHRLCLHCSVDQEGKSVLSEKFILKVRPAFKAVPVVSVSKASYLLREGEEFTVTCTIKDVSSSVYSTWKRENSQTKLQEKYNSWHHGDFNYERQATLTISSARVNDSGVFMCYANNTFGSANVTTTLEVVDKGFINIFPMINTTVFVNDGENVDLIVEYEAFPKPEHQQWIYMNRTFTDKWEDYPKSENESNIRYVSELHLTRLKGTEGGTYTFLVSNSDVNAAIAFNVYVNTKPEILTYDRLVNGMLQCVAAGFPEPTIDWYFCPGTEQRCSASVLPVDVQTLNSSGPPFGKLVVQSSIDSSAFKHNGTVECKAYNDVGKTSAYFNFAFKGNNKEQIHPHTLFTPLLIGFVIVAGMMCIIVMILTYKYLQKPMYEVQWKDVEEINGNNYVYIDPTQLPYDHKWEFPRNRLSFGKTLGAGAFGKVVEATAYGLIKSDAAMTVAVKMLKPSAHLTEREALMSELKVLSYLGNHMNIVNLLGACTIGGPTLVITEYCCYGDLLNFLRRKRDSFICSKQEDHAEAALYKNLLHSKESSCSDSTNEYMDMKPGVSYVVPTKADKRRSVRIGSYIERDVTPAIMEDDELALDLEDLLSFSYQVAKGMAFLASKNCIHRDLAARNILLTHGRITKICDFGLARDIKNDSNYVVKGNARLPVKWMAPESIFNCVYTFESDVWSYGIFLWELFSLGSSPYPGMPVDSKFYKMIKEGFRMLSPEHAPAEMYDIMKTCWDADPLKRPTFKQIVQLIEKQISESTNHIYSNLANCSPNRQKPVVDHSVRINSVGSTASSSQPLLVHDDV
T6 sequence (Q9Y2U5 whole entry): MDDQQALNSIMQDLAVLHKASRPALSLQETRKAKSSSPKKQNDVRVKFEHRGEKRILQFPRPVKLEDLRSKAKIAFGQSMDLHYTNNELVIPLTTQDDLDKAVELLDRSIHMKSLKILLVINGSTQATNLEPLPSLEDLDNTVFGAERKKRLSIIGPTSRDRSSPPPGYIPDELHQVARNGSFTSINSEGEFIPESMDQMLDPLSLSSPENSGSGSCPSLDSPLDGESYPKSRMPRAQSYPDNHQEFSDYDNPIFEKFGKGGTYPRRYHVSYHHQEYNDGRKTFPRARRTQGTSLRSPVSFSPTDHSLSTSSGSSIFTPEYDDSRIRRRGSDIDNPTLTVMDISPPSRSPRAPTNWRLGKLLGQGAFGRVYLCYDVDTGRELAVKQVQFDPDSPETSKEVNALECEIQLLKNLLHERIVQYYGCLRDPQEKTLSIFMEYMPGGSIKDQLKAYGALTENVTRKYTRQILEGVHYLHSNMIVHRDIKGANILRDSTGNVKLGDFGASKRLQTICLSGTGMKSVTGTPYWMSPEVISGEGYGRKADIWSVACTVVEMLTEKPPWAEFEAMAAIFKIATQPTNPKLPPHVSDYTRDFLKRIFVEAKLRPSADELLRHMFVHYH
Sequence of PIP5K1C (O60331 whole entry): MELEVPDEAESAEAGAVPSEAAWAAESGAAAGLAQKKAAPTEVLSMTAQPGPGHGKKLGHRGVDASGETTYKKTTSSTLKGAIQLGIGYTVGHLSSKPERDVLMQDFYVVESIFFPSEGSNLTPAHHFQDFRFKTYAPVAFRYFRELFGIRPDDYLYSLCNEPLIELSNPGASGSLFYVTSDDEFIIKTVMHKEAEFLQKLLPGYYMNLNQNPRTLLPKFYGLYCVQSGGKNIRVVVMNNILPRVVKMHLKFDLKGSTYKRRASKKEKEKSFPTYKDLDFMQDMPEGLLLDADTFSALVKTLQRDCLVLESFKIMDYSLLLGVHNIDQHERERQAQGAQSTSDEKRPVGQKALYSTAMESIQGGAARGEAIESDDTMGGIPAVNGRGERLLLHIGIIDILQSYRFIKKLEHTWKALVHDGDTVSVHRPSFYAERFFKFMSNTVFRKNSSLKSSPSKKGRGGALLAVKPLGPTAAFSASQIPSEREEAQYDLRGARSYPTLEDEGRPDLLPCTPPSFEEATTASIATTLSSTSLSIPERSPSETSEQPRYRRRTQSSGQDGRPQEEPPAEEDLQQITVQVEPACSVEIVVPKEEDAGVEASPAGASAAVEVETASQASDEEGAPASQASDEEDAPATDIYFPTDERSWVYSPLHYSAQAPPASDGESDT
Sequence of CSK (P41240 whole entry): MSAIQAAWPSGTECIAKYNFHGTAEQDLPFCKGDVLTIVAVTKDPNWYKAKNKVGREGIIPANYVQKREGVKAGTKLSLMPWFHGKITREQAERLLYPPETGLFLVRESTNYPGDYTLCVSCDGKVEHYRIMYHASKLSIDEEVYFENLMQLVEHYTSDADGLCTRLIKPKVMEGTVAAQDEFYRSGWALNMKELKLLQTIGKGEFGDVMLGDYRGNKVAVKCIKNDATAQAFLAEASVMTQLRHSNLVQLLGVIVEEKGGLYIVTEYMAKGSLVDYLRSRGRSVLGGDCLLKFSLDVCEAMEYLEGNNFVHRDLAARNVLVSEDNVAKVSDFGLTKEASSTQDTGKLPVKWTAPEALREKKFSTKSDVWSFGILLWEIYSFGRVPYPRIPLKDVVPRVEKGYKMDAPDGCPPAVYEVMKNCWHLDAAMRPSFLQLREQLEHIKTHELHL
Sequence of p38-alpha (Q16539 whole entry): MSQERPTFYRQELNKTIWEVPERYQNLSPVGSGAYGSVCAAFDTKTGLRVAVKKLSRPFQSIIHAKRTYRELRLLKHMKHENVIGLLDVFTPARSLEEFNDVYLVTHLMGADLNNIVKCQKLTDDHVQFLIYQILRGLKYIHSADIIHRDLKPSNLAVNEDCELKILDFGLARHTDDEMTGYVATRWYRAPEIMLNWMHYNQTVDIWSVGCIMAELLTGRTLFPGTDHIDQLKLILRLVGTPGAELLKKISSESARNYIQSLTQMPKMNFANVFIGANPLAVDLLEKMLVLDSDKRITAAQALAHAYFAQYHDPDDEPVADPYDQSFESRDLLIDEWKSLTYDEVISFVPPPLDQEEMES
T1 sequence (Q04912 25-1400): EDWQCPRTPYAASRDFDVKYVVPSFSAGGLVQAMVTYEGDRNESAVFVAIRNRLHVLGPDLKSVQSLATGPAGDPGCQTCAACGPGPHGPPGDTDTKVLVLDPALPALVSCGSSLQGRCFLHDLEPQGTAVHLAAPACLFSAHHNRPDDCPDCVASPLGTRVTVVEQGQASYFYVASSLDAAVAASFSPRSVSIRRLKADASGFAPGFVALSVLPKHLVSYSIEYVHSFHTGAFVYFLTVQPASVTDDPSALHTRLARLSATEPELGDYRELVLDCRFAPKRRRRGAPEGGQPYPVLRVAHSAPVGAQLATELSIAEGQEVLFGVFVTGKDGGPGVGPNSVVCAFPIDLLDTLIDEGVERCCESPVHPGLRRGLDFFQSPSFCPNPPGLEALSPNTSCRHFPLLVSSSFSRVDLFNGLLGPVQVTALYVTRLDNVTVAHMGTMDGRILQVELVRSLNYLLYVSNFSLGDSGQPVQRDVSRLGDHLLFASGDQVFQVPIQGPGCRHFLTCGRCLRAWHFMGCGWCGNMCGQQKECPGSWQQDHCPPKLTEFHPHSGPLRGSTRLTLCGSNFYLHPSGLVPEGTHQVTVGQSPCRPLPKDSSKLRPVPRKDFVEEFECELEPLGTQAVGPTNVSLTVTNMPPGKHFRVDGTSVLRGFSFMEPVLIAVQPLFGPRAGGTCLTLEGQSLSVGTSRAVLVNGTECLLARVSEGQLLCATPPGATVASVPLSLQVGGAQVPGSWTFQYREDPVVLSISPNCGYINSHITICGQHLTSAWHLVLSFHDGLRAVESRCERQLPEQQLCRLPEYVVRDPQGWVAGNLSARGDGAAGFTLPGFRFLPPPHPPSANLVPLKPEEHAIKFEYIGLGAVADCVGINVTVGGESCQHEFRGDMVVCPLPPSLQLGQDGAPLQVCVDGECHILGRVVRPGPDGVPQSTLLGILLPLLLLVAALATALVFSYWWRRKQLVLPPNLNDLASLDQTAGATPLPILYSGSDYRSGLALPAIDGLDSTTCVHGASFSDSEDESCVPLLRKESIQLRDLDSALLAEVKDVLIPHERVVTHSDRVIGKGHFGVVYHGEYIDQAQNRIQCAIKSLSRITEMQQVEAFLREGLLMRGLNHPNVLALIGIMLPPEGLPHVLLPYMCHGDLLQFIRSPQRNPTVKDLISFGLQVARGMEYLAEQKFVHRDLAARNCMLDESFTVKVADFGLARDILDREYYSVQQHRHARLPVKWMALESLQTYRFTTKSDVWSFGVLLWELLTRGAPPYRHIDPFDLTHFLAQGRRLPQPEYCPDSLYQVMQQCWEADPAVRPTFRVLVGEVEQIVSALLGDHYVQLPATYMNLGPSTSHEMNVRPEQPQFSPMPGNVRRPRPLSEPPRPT

With C=CC(=O)Nc1ccc(OC)c(Nc2cc(-c3[nH]c(CC)nc3-c3cccc(NC(=O)c4cccc5c4NC(=O)c4ccccc4N5)c3)ccn2)c1 [Compound 4] the POC (MST1R) was 85% of control, the POC (ULK2) was 80% of control and the POC (FLT3(D835H)) was 92% of control. The POC (CDK4-cyclinD1) was 94% of control, the “metabolic stability in liver microsomes” value [1] was “metabolically stable” and the POC (MAP4K3) was 9.5% of control. For the same molecule, the POC (CDKL1) was 100% of control, the POC (NEK5) was 100% of control and the POC [2] was 72% of control. The POC (PKMYT1) was 99% of control, the POC (EGFR(G719C)) was 6.5% of control and the POC (KIT(V559D)) was 100% of control. For the same molecule, the POC (SgK110) was 100% of control, the POC (YES) was 20% of control and the POC (MAP3K2) was 100% of control. The POC (FLT3(ITD+D835V)) was 100% of control, the POC (ERK8) was 100% of control and the POC (CAMKK2) was 95% of control. The POC (DCAMKL1) was 100% of control, the POC (DMPK2) was 0% of control and the POC [3] was 97% of control. The POC (PRKG1) was 100% of control, the POC (EPHB6) was 100% of control and the POC (PIP5K1C) was 78% of control. The POC (CSK) was 14% of control, the POC (p38-alpha) was 46% of control and the POC (HIPK3) was 100% of control. For the same molecule, the POC (FLT3(D835Y)) was 96% of control.

From paper PMC10879502, “Linking ATP and allosteric sites to achieve superadditive binding with bivalent EGFR kinase inhibitors” (Communications Chemistry, 2024)
